Experimental data as given in PubChem BioAssay (NCI).
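Values below derive from 48-hour exposures of cells grown in 96-well plates, with endpoints linearly interpolated between the two concentrations bracketing the appropriate inhibition level. Here, GI50 denotes the concentration required for 50% inhibition of growth. Definition used: TGI = concentration required for complete inhibition of growth.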

Key:
Experiment in all cases: DTP human tumour cell line panel, 48 h
SR leukemia = test system: SR leukemia
SK-MEL-5 melanoma = test system: SK-MEL-5 melanoma
MOLT-4 leukemia = test system: MOLT-4 leukemia
OVCAR-3 ovarian = test system: OVCAR-3 ovarian
A498 renal = test system: A498 renal
SK-MEL-28 melanoma = test system: SK-MEL-28 melanoma
SF-268 CNS = test system: SF-268 CNS
EKVX NSCLC = test system: EKVX NSCLC
UO-31 renal = test system: UO-31 renal
NCI-H522 lung = test system: NCI-H522 lung
PC-3 prostate = test system: PC-3 prostate
786-0 renal = test system: 786-0 renal
T-47D breast = test system: T-47D breast
K-562 leukemia = test system: K-562 leukemia
OVCAR-5 ovarian = test system: OVCAR-5 ovarian
UACC-257 melanoma = test system: UACC-257 melanoma
MDA-MB-435 = test system: MDA-MB-435
M14 melanoma = test system: M14 melanoma
OVCAR-8 ovarian = test system: OVCAR-8 ovarian
HT29 colon = test system: HT29 colon
MALME-3M melanoma = test system: MALME-3M melanoma
HCT-15 colon = test system: HCT-15 colon
UACC-62 melanoma = test system: UACC-62 melanoma
NCI/ADR-RES ovarian = test system: NCI/ADR-RES ovarian
BT-549 breast = test system: BT-549 breast
SNB-19 CNS = test system: SNB-19 CNS
COLO 205 colon = test system: COLO 205 colon
IGROV1 ovarian = test system: IGROV1 ovarian
A549 NSCLC = test system: A549 NSCLC
ACHN renal = test system: ACHN renal
LOX IMVI melanoma = test system: LOX IMVI melanoma
HOP-62 NSCLC = test system: HOP-62 NSCLC
HCT-116 colon = test system: HCT-116 colon
HOP-92 NSCLC = test system: HOP-92 NSCLC
SF-539 CNS = test system: SF-539 CNS
MDA-MB-231 breast = test system: MDA-MB-231 breast
SK-OV-3 ovarian = test system: SK-OV-3 ovarian
NCI-H23 lung = test system: NCI-H23 lung
RPMI-8226 leukemia = test system: RPMI-8226 leukemia
HCC-2998 colon = test system: HCC-2998 colon
SK-MEL-2 melanoma = test system: SK-MEL-2 melanoma
HS 578T breast = test system: HS 578T breast
SF-295 CNS = test system: SF-295 CNS
NCI-H460 lung = test system: NCI-H460 lung
CCRF-CEM leukemia = test system: CCRF-CEM leukemia
CAKI-1 renal = test system: CAKI-1 renal
OVCAR-4 ovarian = test system: OVCAR-4 ovarian
SN12C renal = test system: SN12C renal
DU-145 prostate = test system: DU-145 prostate
TK-10 renal = test system: TK-10 renal
SW-620 colon = test system: SW-620 colon
KM12 colon = test system: KM12 colon
RXF 393 renal = test system: RXF 393 renal
U251 CNS = test system: U251 CNS
NCI-H226 lung = test system: NCI-H226 lung
SNB-75 CNS = test system: SNB-75 CNS

C=C1C(=O)O[C@H]2[C@H]1CC/C(COC(=O)NCc1c[nH]c3ccc(Br)cc13)=C\CC[C@@]1(C)O[C@@H]21 gave a GI50 (SR leukemia) of 296 nM, a TGI (SR leukemia) of 10100 nM and a GI50 (SK-MEL-5 melanoma) of 1630 nM. For the same molecule, the TGI (SK-MEL-5 melanoma) was 2990 nM, the GI50 (MOLT-4 leukemia) was 1700 nM and the TGI (MOLT-4 leukemia) was 5510 nM. It also gave a GI50 (OVCAR-3 ovarian) of 1010 nM, a TGI (OVCAR-3 ovarian) of 2290 nM and a GI50 (A498 renal) of 1670 nM. For the same molecule, the TGI (A498 renal) was 3250 nM, the GI50 (SK-MEL-28 melanoma) was 1720 nM and the TGI (SK-MEL-28 melanoma) was 3370 nM. It also gave a GI50 (SF-268 CNS) of 1610 nM, a TGI (SF-268 CNS) of 3410 nM and a GI50 (EKVX NSCLC) of 1580 nM. For the same molecule, the TGI (EKVX NSCLC) was 3050 nM, the GI50 (UO-31 renal) was 1380 nM and the TGI (UO-31 renal) was 2680 nM. The GI50 (NCI-H522 lung) was 589 nM, the TGI (NCI-H522 lung) was 2050 nM and the GI50 (PC-3 prostate) was 1510 nM. For the same molecule, the TGI (PC-3 prostate) was 3120 nM, the GI50 (786-0 renal) was 841 nM and the TGI (786-0 renal) was 2360 nM. The GI50 (T-47D breast) was 1240 nM, the TGI (T-47D breast) was 2990 nM and the GI50 (K-562 leukemia) was 292 nM. The TGI (K-562 leukemia) was 1530 nM, the GI50 (OVCAR-5 ovarian) was 1760 nM and the TGI (OVCAR-5 ovarian) was 3780 nM. It also gave a GI50 (UACC-257 melanoma) of 1440 nM, a TGI (UACC-257 melanoma) of 2900 nM and a GI50 (MDA-MB-435) of 1120 nM. For the same molecule, the TGI (MDA-MB-435) was 2550 nM, the GI50 (M14 melanoma) was 1350 nM and the TGI (M14 melanoma) was 3070 nM. For the same molecule, the GI50 (OVCAR-8 ovarian) was 1350 nM, the TGI (OVCAR-8 ovarian) was 3480 nM and the GI50 (HT29 colon) was 794 nM. It also gave a TGI (HT29 colon) of 2260 nM, a GI50 (MALME-3M melanoma) of 1840 nM and a TGI (MALME-3M melanoma) of 3530 nM. The GI50 (HCT-15 colon) was 461 nM, the TGI (HCT-15 colon) was 1870 nM and the GI50 (UACC-62 melanoma) was 1310 nM. It also gave a TGI (UACC-62 melanoma) of 2640 nM, a GI50 (NCI/ADR-RES ovarian) of 3040 nM and a TGI (NCI/ADR-RES ovarian) of 12400 nM. For the same molecule, the GI50 (BT-549 breast) was 1290 nM, the TGI (BT-549 breast) was 2920 nM and the GI50 (SNB-19 CNS) was 2750 nM. For the same molecule, the TGI (SNB-19 CNS) was 11300 nM, the GI50 (COLO 205 colon) was 884 nM and the TGI (COLO 205 colon) was 2320 nM. It also gave a GI50 (IGROV1 ovarian) of 1450 nM, a TGI (IGROV1 ovarian) of 2970 nM and a GI50 (A549 NSCLC) of 1750 nM. It also gave a TGI (A549 NSCLC) of 3650 nM, a GI50 (ACHN renal) of 1280 nM and a TGI (ACHN renal) of 2580 nM. It also gave a GI50 (LOX IMVI melanoma) of 701 nM, a TGI (LOX IMVI melanoma) of 2050 nM and a GI50 (HOP-62 NSCLC) of 1520 nM. The TGI (HOP-62 NSCLC) was 3350 nM, the GI50 (HCT-116 colon) was 619 nM and the TGI (HCT-116 colon) was 1980 nM. It also gave a GI50 (HOP-92 NSCLC) of 1580 nM, a TGI (HOP-92 NSCLC) of 3170 nM and a GI50 (SF-539 CNS) of 1660 nM. For the same molecule, the TGI (SF-539 CNS) was 3130 nM, the GI50 (MDA-MB-231 breast) was 1490 nM and the TGI (MDA-MB-231 breast) was 3070 nM. For the same molecule, the GI50 (SK-OV-3 ovarian) was 5870 nM, the TGI (SK-OV-3 ovarian) was 18500 nM and the GI50 (NCI-H23 lung) was 1660 nM. The TGI (NCI-H23 lung) was 3350 nM, the GI50 (RPMI-8226 leukemia) was 752 nM and the TGI (RPMI-8226 leukemia) was 3570 nM. The GI50 (HCC-2998 colon) was 1790 nM, the TGI (HCC-2998 colon) was 3300 nM and the GI50 (SK-MEL-2 melanoma) was 1350 nM. For the same molecule, the TGI (SK-MEL-2 melanoma) was 2810 nM, the GI50 (HS 578T breast) was 2170 nM and the TGI (HS 578T breast) was 7090 nM. The GI50 (SF-295 CNS) was 1600 nM, the TGI (SF-295 CNS) was 3290 nM and the GI50 (NCI-H460 lung) was 1880 nM. The TGI (NCI-H460 lung) was 4040 nM, the GI50 (CCRF-CEM leukemia) was 315 nM and the TGI (CCRF-CEM leukemia) was 1580 nM. For the same molecule, the GI50 (CAKI-1 renal) was 1510 nM, the TGI (CAKI-1 renal) was 2940 nM and the GI50 (OVCAR-4 ovarian) was 1450 nM. It also gave a TGI (OVCAR-4 ovarian) of 3350 nM, a GI50 (SN12C renal) of 1360 nM and a TGI (SN12C renal) of 3120 nM. The GI50 (DU-145 prostate) was 1110 nM, the TGI (DU-145 prostate) was 2580 nM and the GI50 (TK-10 renal) was 1550 nM. The TGI (TK-10 renal) was 2930 nM, the GI50 (SW-620 colon) was 611 nM and the TGI (SW-620 colon) was 2300 nM. It also gave a GI50 (KM12 colon) of 2230 nM, a TGI (KM12 colon) of 5070 nM and a GI50 (RXF 393 renal) of 1250 nM. It also gave a TGI (RXF 393 renal) of 2590 nM, a GI50 (U251 CNS) of 1630 nM and a TGI (U251 CNS) of 3020 nM. The GI50 (NCI-H226 lung) was 1550 nM, the TGI (NCI-H226 lung) was 3070 nM and the GI50 (SNB-75 CNS) was 1260 nM. It also gave a TGI (SNB-75 CNS) of 2530 nM.
